Experimental data taken from PMC7698016 (Metabolites, 2020).

Target: T1, AKR1C3 (aldo-keto reductase 1C3) (Homo sapiens, UniProt P42330)
T1 construct: human recombinant enzyme expressed in E. coli (Novus NBC1-21051)
Assay: Km by real-time NADPH fluorescence ([…]); GC-QToF gave Km […]
Assay type: biochemical

T1 sequence (P42330 whole entry): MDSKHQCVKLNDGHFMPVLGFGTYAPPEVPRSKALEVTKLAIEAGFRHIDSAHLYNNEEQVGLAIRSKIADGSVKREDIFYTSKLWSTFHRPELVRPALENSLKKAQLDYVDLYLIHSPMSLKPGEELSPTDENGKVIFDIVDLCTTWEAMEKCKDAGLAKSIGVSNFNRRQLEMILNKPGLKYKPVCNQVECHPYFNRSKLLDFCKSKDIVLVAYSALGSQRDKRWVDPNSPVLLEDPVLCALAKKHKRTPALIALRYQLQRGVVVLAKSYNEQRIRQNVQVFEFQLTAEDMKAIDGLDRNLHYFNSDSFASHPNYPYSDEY

SMILES: C[C@]12CC[C@@H](O)C[C@H]1CC[C@@H]1[C@@H]2CC[C@]2(C)C(=O)CC[C@@H]12 [D, 3α-hydroxy-5β-androstan-17-one]
- Km: 9.7 µM
